Laboratory results: article PMC2760094 (Journal of medicinal chemistry, 2009)

Columns and labels:
[1] = system: Melanoma (A 375, B16-F1) and Prostate Cancer Cells (DU145, PC-3, LNCaP, PPC-1); test: Antiproliferative activity over melanoma and prostate cancer cell lines; assay type: cell-based, human and mouse
DU 145 cells = test: SRB cytotoxicity assay, DU 145 prostate cancer; assay type: cell-based, human; conditions: read-out: IC50 ± SEM (μM) DU 145, Table 2, 96 h
PPC-1 cells = test: SRB cytotoxicity assay, PPC-1 prostate cancer; assay type: cell-based, human; conditions: read-out: IC50 ± SEM (μM) PPC-1, Table 2, 96 h
LNCaP cells = test: SRB cytotoxicity assay, LNCaP prostate cancer; assay type: cell-based, human; conditions: read-out: IC50 ± SEM (μM) LNCaP, Table 2, 96 h
CCRF-CEM (Leukemia) = test: NCI-60 human tumor cell line screen, CCRF-CEM; assay type: cell-based; conditions: read-out: IC50 NCI-60, CCRF-CEM, lowest of the NCI-60 range
A375 cells = test: SRB cytotoxicity assay, A375 melanoma; assay type: cell-based, human; conditions: read-out: IC50 ± SEM (μM) A375, Table 2, 48 h
B16-F1 cells = test: SRB cytotoxicity assay, B16-F1 melanoma; assay type: cell-based, mouse; conditions: read-out: IC50 ± SEM (μM) B16-F1, Table 2, 48 h
Cell cycle progression = assay type: cell-based; conditions: unpublished data
Water solubility = assay type: physicochemical

Row | Molecule | antiproliferative activity (in words) [1] | further results
1 | COc1cc(C(=O)c2csc(-c3ccc(C(F)(F)F)cc3)n2)cc(OC)c1OC [8t, (2-(4-(Trifluoromethyl)-phenyl)-thiazol-4-yl)(3,4,5-trimethoxyphenyl)-methanone] | comparable antiproliferative activity | –
2 | COc1cc(OC)cc(C(=O)c2csc(-c3ccccc3)n2)c1 [8g, (3,5-Dimethoxyphenyl)(2-phenylthiazol-4-yl)-methanone] | – | fold lower average cytotoxicity than 8f ([1]; against six different cell lines, relative to 8f): 6 fold
3 | (2RS, 4R)-2-phenyl-thiazolidine-4-carboxylic acid hexadecylamide [ATCAA-1] | – | IC50 (DU 145 cells): 1.7 ± 0.1 µM; IC50 (PPC-1 cells): 0.4 ± 0.1 µM; IC50 (LNCaP cells): 1 ± 0.1 µM; IC50 (CCRF-CEM (Leukemia)): 124 nM; IC50 (A375 cells): 2.1 ± 0.2 µM; IC50 (B16-F1 cells): 2.2 ± 0.3 µM
4 | COc1cc(NC(=O)C2CSC(c3ccccc3)=N2)cc(OC)c1OC (stereo in doubt) [4b, (4R)-2-Phenyl-N-(3,4,5-trimethoxyphenyl)-4,5-dihydrothiazole-4-carboxamide] | – | IC50 ([1]; read-out: IC50 over melanoma and prostate cancer cell lines): 3400 to 38300 nM
5 | COc1cc(C(=O)c2csc(-c3ccc(C(=O)O)cc3)n2)cc(OC)c1OC [8r, 4-[4-(3,4,5-Trimethoxybenzoyl)-thiazol-2-yl]-benzoic acid] | total loss of the anti-cancer activity | –
6 | COc1cc(C(=O)c2csc(-c3ccccc3)n2)cc(OC)c1OC [8f, (2-Phenyl-thiazol-4-yl)-(3,4,5-trimethoxy-phenyl)-methanone] | – | cell cycle effect (in words) (Cell cycle progression): significant increase in G2/M phase arrest
7 | O=C(c1cc(O)c(O)c(O)c1)c1csc(-c2ccccc2)n1 [compound 11, (2-Phenyl-thiazol-4-yl)-(3,4,5-trihydroxy-phenyl)-methanone] | complete loss of antiproliferative activity | water solubility (in words) (Water solubility): water soluble
8 | COc1cc(C(=O)c2csc(-c3ccc(C#N)cc3)n2)cc(OC)c1OC [8q, 4-[4-(3,4,5-Trimethoxybenzoyl)-thiazol-2-yl]-benzonitrile] | comparable antiproliferative activity | –
9 | COc1cc(C(=O)c2csc(-c3ccc([N+](=O)[O-])cc3)n2)cc(OC)c1OC [8p, [2-(4-Nitrophenyl)-thiazol-4-yl]-(3,4,5-trimethoxyphenyl)-methanone] | comparable antiproliferative activity | –
10 | COc1cc(NC(=O)[C@@H]2CSC(c3cc(OC)c(OC)c(OC)c3)N2)cc(OC)c1OC (mixture of isomers) [2b, (2RS, 4R)-N,2-bis(3,4,5-trimethoxyphenyl)thiazolidine-4-carboxamide] | the potency against both cancer cell lines was lost | –
11 | O=C(c1ccccn1)c1csc(-c2ccccc2)n1 [8i, (2-Phenylthiazol-4-yl)-(pyridin-2-yl)-methanone] | total loss of the anti-cancer activity | –
12 | COc1ccc(-c2nc(C(=O)c3cc(OC)c(OC)c(OC)c3)cs2)cc1OC [8o, [2-(3,4-Dimethoxyphenyl)-thiazol-4-yl]-(3,4,5-trimethoxyphenyl)-methanone] | comparable antiproliferative activity | –
13 | COc1cc(NC(=O)c2csc(-c3ccccc3)n2)cc(OC)c1OC [compound 5, 2-Phenyl-N-(3,4,5-trimethoxyphenyl)thiazole-4-carboxamide] | did not show any cytotoxicity against either cancer cell line tested | –
14 | COc1cc(C(=O)c2csc(-c3ncccn3)n2)cc(OC)c1OC [8y, [2-(Pyrimidin-2-yl)-thiazol-4-yl]-(3,4,5-trimethoxyphenyl)-methanone] | kept partial activity against both cancer cells | –
15 | COc1cc(NC(=O)[C@@H]2CSC(c3ccccc3)N2)cc(OC)c1OC (mixture of isomers) [2a, (2RS, 4R)-2-Phenyl-N-(3,4,5-trimethoxyphenyl)thiazolidine-4-carboxamide] | the potency against both cancer cell lines was lost | –
16 | COc1cc(C(=O)c2cscn2)cc(OC)c1OC [compound 10, Thiazol-4-yl-(3,4,5-trimethoxy-phenyl)-methanone] | total loss of activity | –
17 | COC(=O)c1ccc(-c2nc(C(=O)c3cc(OC)c(OC)c(OC)c3)cs2)cc1 [8s, Methyl-4-[4-(3,4,5-trimethoxybenzoyl)-thiazol-2-yl]-benzoate] | total loss of potency | –
18 | COc1ccccc1C(=O)c1csc(-c2ccccc2)n1 [8d, (2-Methoxyphenyl)(2-phenylthiazol-4-yl)-methanone] | weak activity against a certain cell lines | –
